Data set [1] deals with Pseudomonas aeruginosa. The data set is described as follows: Inhibition of Pseudomonas aeruginosa ExoU expressed in Saccharomyces cerevisiae 14328 harboring pdr1/pdr3 genes assessed as cell death measured as yeast growth recovery at 5 uM after 48 hrs by copper-inducible promoter CUP1 assay. Further details: scale not given: the % may be the effect or the level left.
Data set [2] is described as follows: Toxicity against Saccharomyces cerevisiae 14328 assessed as cell viability at 5 uM after 48 hrs. To be noted: Saccharomyces cerevisiae 14328 cells, read-out: Activity. The format is organism-based.
A short description of data set [3]: Cytotoxicity against HEK293T cells assessed as cell viability at 5 uM after 48 hrs. The note with it: human, read-out: Activity. The format is cell-based, HEK-293T.

Structures are written as SMILES.

Take `Cc1cc(C)c(S(=O)(=O)NCCOc2ccccc2)c(C)c1`: the Activity in data set [1] was 23.7%. Also, the viability at 48 h, 5 µM in data set [2] is above 90%.
In the case of `CC(C)(C)c1ccc(S(=O)(=O)Nc2ccc3c(c2)OCCO3)cc1`, the viability at 48 h, 5 µM in data set [3] was 87.7%; in data set [2], above 90%. In addition, in data set [1], the Activity is 52.2%.
As for `Cc1cc(C)c(NS(=O)(=O)c2ccc3c(c2)OCCO3)c(C)c1`, the Activity in data set [1] turned out to be 21%. The viability at 48 h, 5 µM in data set [2] worked out at 89.1%.
As for `O=S(=O)(Nc1cccc2ccccc12)c1ccc(C(F)(F)F)cc1`, the viability at 48 h, 5 µM in data set [3] and in data set [2] was above 90% throughout. The Activity in data set [1] turned out to be 45.4%.
Take `Cc1cc(C)c(S(=O)(=O)Nc2ccc3c(c2)OCCO3)c(C)c1`: the viability at 48 h, 5 µM in data set [3] and in data set [2] was above 90% each time. Moreover, in data set [1], the Activity was found to be 60.2%.
Consider `O=S(=O)(Nc1ccc2c(c1)OCCO2)c1ccc2ccccc2c1`, for which the viability at 48 h, 5 µM in data set [3] is 87.5%; in data set [2] it was above 90%. For the same compound, the Activity in data set [1] came out at 36.6%.
Take `CCCc1ccc(OCCNS(=O)(=O)c2c(C)cc(C)cc2C)cc1`: the viability at 48 h, 5 µM in data set [3] was determined as 72.3%; in data set [2], 85.2%. Further, in data set [1], the Activity was determined as 30.6%.
Turning to `CCCCCc1ccc(S(=O)(=O)Nc2ccc3c(c2)OCCO3)cc1`, the Activity in data set [1] is 9%. The viability at 48 h, 5 µM in data set [2] is above 90%.
Turning to `NC(=O)c1cccc2c1-c1ccccc1C2`, the viability at 48 h, 5 µM in data set [3] and in data set [2] was above 90% each time. The Activity in data set [1] stood at 84.7%.
As for `COc1ccc(NS(=O)(=O)c2c(C)cc(C)cc2C)cc1OC`, in data set [1], the Activity is 18.5%. Moreover, in data set [2], the viability at 48 h, 5 µM is above 90%.
Taken in the same sequence, the figures for `O=S(=O)(Nc1ccc2c(c1)OCCO2)c1ccc(C(F)(F)F)cc1` were 27.6% and above 90%.

The values above are taken from ChEMBL document CHEMBL3352524, “Identification of arylsulfonamides as ExoU inhibitors” (Bioorg Med Chem Lett, 2014).
